The values that follow come from patent US12570956B2, “Efficient derivation of stable pluripotent bovine embryonic stem cells” (The Regents of the University of California, priority 2018, dated 2026).

Assay [1] deals with CTFR-bESCs. In words: Routine maintenance and passaging of CTFR-bESCs. The class given is cell-based, bovine. Conditions: Y-27632, 10 μM. As to the method: Once established, CTFR-bESC lines were grown at 37° C. and 5% CO2 on wells containing MEF and passaged every 4-5 days at a 1:10 split ratio. To increase cell survival, optionally, ROCK inhibitor (Y-27632, 10 μM) was added to the wells 1 h prior to passage and was also added to the newly prepared wells containing MEF and fresh culture media medium during 24 hrs. Media change was done daily between passages. ROCK inhibitor is dispensable for routine maintenance and passaging of CTFR-bESCs.

In a further assay the test system is bovine blastocysts. In words: Derivation of CTFR-bESC lines from plated blastocysts/ICMs. Type of assay: cell-based. Conditions: IWR1 not present in the culture medium. As to the method:
CTFR-bESCs derivation efficiency was measured as the percentage of embryos successfully establishing a CTFR-bESC line at passage 3 over the total number of embryos seeded. To optimize the CTFR-bESCs derivation efficiency, Applicants evaluated three different plating methods: whole blastocyst, mechanical isolation of the ICM by microdissection, and isolation of the ICM by immunosurgery. […] The initial outgrowths from the three methods were slightly different. The immunosurgery-derived outgrowths were smaller and more homogeneous in cell morphology than those from the other two methods.
Individual whole blastocysts or isolated ICMs were placed in separate wells of a 12-well dish seeded with a monolayer of gamma-irradiated mouse embryonic fibroblasts (MEF) and cultured in CTFR medium: a custom mTeSR-like basal medium (completely devoid of growth factors FGF2 and TGFβ) containing low fatty acid BSA (MP Biomedicals NZ), similar to basal medium in the published recipe([…]), and incubated at 37° C. and 5% CO2.
Thereafter, the media was changed daily. Outgrowths (after 6-7 days in culture) were dissociated and passaged using TrypLE (Gibco, 12563011) and re-seeded in the presence of Rho Kinase (ROCK) inhibitor (Y-27632, 10 μM) onto newly prepared wells containing MEF and fresh medium (FIG. 1).

Assay [2] deals with bovine embryonic stem cells. In words: Immunostaining of pluripotency markers in bESCs grown with or without IWR1. The class given is cell-based. Conditions: withdrawal of IWR1 from the culture media; four passages. How it is done:
FIG. 3: Inhibition of the canonical Wnt-signaling pathway is a requirement for self-renewal of pluripotent CTFR-bESCs. Immunostaining of the core pluripotency markers POU5F1 and SOX2 in bovine embryonic stem cells grown in medium supplemented with or devoid of IWR1 (+IWR1 and −IWR1, respectively). Cells were grown for four passages in the two conditions before immunofluorescence analysis. Scale bar 100 μm.
Individual whole blastocysts or isolated ICMs were placed in separate wells of a 12-well dish seeded with a monolayer of gamma-irradiated mouse embryonic fibroblasts (MEF) and cultured in CTFR medium: a custom mTeSR-like basal medium (completely devoid of growth factors FGF2 and TGFβ) containing low fatty acid BSA (MP Biomedicals NZ), similar to basal medium in the published recipe(45) supplemented with 20 ng/ml human FGF2 and 2.5 μM IWR1 (CTFR), and incubated at 37° C. and 5% CO2.
Once established, CTFR-bESC lines were grown at 37° C. and 5% CO2 on wells containing MEF and passaged every 4-5 days at a 1:10 split ratio. To increase cell survival, optionally, ROCK inhibitor (Y-27632, 10 μM) was added to the wells 1 h prior to passage and was also added to the newly prepared wells containing MEF and fresh culture media medium during 24 hrs. Media change was done daily between passages. ROCK inhibitor is dispensable for routine maintenance and passaging of CTFR-bESCs. […]

The test system of another assay is bovine blastocyst. Particulars: added during in vitro pre-implantation development; cited from earlier work.
Assay [3] has as its system CTFR-bESCs. Kind of assay: Feeder-free culture of CTFR-bESCs on Matrigel or Vitronectin. The class given is cell-based, bovine. Particulars: medium supplemented with Activin-A (10 ng/mL), four passages. As to the method:
FIG. 9. CTFR-bESCs can be cultured in feeder-free conditions. Brightfield images and immunostaining for pluripotency markers OCT4 and SOX2 of CTFR-bESCs cultured for four passages on mouse embryonic fibroblast (MEF) feeder (Control) or different extracellular matrices (Matrigel or Vitronectin) conditions, with or without the supplementation of Activin-A (10 ng/mL). Control: inactivated MEFs.
Culturing CTFR-bESCs in absence of feeder cells lead to cellular differentiation after a few passages.

A further assay concerns bovine embryos. Conditions: in vitro treatment from day 5 to day 7 after fertilization; cited from earlier work.

“Also recorded” adds a separate entry of the source.

For `C[C@@H](N)[C@H]1CC[C@H](C(=O)Nc2ccncc2)CC1` [Y-27632], in the assay with CTFR-bESCs [1], the “need for ROCK inhibitor in maintenance and passaging” value was “dispensable”.

Consider `O=C(Nc1cccc2cccnc12)c1ccc(N2C(=O)[C@@H]3[C@H](C2=O)[C@@H]2C=C[C@H]3C2)cc1` [IWR1], for which the “establishment of bESC line” value in the assay with bovine blastocysts is “no bESC lines could be established”. Besides, the “pluripotency marker expression (POU5F1, SOX2)” value in assay [2] is “loss of pluripotency marker expression”.

In the case of `COc1cccc(-c2cc(NCc3ccc4c(c3)OCO4)nc(N)n2)c1` [AMBMP, 2-amino-4-(3,4-(methylenedioxy)benzylamino)-6-(3-methoxyphenyl)pyrimidine], in the assay with bovine blastocyst, the bovine blastocyst development entry is “detrimental effects” and the “total number of cells in the ICM” value was “reduces”.

As for “Activin-A: culture supplement used with an organic matrix to replace feeder cells”, the “propagation and pluripotency marker expression (OCT4, SOX2) without feeder cells” value with CTFR-bESCs [3] is “allowed the propagation of the cells for multiple passages while maintaining expression of pluripotency markers; also recorded: maintained expression of pluripotency markers and a morphology consistent with CTFR-bESC”.

B1: DKK1: protein inhibitor of the canonical WNT-signaling pathway, naturally secreted by the female reproductive tract (protein, UniProt O94907 32-266, looked up)
Dickkopf-related protein 1: TLNSVLNSNAIKNLPPPLGGAAGHPGSAVSAAPGILYPGGNKYQTIDNYQPYPCAEDEECGTDEYCASPTRGGDAGVQICLACRKRRKRCMRHAMCCPGNYCKNGICVSSDQNHFRGEIEETITESFGNDHSTLDGYSRRTTLSSKMYHTKGQEGSVCLRSSDCASGLCCARHFWSKICKPVLKEGQVCTKHRRKGSHGLEIFQRCYCGEGLSCRIQKDHHQASNSSRLHTCQRH
With B1, in the assay with bovine embryos, the “embryo survival after transfer to recipients” value was “significantly improve”.
